Results published in patent US20120121574A1, “ANTIMICROBIAL, ANTIVIRAL, ANTICANCER AND IMMUNOMODULATORY PEPTIDES AND USES THEREFORE” (priority 2010, published 2012).
pEC50: −log10 of the molar value. Where a SMILES comes first, the peptide text is derived from it. Where no end group is shown, it is not given here.

Experiments:
[1] = test system: C. albicans SC5314 strain; settings: for pEC50: SC5314, 6 h; for EC50asd/EC50N10K: Table IX
Protocol: In vitro activity of N10K against C. albicans SC5314 strain. The candidacidal activity of N10K peptide against C. albicans was assessed by a conventional colony forming unit (CFU) assay as previously described (Polonelli et al., 2003; Manfredi et al., 2005). Briefly, cells of C. albicans SC5314 were incubated at 37° C. for 6 hours (hr) in the presence of N10K at the concentration indicated of 20, 12.5 or 6.25 microgram/ml, or in distilled water as control (C). After incubation, cell suspensions were plated on Sabouraud dextrose agar and incubated at 30° C. for 48 hours when CFU were counted (** P<0.01 for N10K treated versus untreated cells, by t test). […]
The alanine-substituted derivatives (asd), defined according to the position held by the alanine-substituted aminoacid, were tested against C. albicans by a conventional colony forming unit (CFU) as previously described (Polonelli et al., 2003). Briefly, cells of C. albicans SC5314 were incubated at 37° C. for 6 hours in the presence of N10K or N10K asd at different scalar concentrations or distilled water as control. After incubation, cell suspensions were plated on Sabouraud dextrose agar and incubated at 30° C. for 48 hours when CFU were counted. Based on several independent replications, the EC50 value of each peptide was calculated by nonlinear regression analysis using Graph Pad Prism 4.01 software, San Diego, Calif., USA. […]
In vitro microbicidal activity of N10K derivative with 2 amino acid substitutions, or 80% sequence identity with native N10K, namely peptide Seq Id. No. 25 was tested against Candida albicans SC5314 as determined by Colony Forming Unit assay.

[2] = test system: C. neoformans 6995 strain; settings: 6995 strain, 6 h
Protocol: After the incubation period, the cell suspensions have been plated on Sabouraud dextrose agar, then incubated at 30° C. and observed for CFU enumeration after 48 hours.

U937 cell line = experiment: annexine-V/propidium iodide flow cytometry on U937; settings: annexine-V/propidium iodide staining
[3] = test system: peritoneal murine macrophages (PM); experiment: in vitro immunomodulatory activity on murine peritoneal macrophages (PM); type: cell-based, mouse; settings: mouse peritoneal macrophages, FIG. 73
Protocol: In vitro immunomodulatory activity of MoA VHCDR3 on murine immune cells. FIGS. 47-51 are graphs showing TNF-α and IL-6 production by PM and PMN stimulated with MoA CDRs and mouse MoA VHCDR3 uptake by different cell populations. Cells were cultured in the presence or absence (NS) of human and/or mouse CDRs, lipopolisaccharide (LPS), or negative control peptide (NC) (all 10 micrograms/ml) for 18 hr. Both PM and PMN cell populations were 5×10^6/ml. After incubation, TNF-α and IL-6 levels were evaluated in culture supernatants by specific ELISA assays (* P<0.05 treated vs untreated cells, n=7). In FIG. 51, dendritic cells (DC), PM, PMN, and T cells (all 1×10^6/ml) were incubated for 1 hr in the presence or absence (NS) of biotinylated (b)-MoA VHCDR3 or b-NC (both 10 micrograms/ml). After incubation, permeabilized cells were reacted with FITC-labelled mAb to biotin (b) and analyzed by FACScan flow cytometry. Data are reported as the percentage of positive cells *, P<0.05 (b-VHCDR3 treated vs untreated cells, n=5). Error bars, s.e.m. FIGS. 52A and B show graphs and colored cell staining micrograph of kinetic of VHCDR3 uptake by PM. PM (1×10^6/ml) were incubated for different times with b-VHCDR3 or b-NC (all 10 micrograms/ml). After incubation, permeabilized cells were reacted with FITC-labelled mAb to biotin and analyzed by FACScan flow cytometry. Data are reported as the mean fluorescence intensity (MFI) and percentage of positive cells (FIG. 52A) (* P<0.05 b-VHCDR3-treated vs untreated cells, n=7). Error bars, s.e.m. In selected experiments, cells were incubated for 1 hr as above described, reacted with FITC-labelled mAb to biotin in the presence of Evans' Blue as a counter stain, and subsequently examined under fluorescent light microscopy (FIG. 52B). Note the green fluorescence of b-VHCDR3 treated cells. Original magnification 20×. In FIGS. 53 and 54 is shown the phospho-Akt activation and TNF-α production in PM stimulated with MoA VHCDR3. PM (3×10^6/ml) were stimulated for 1 hr in the presence or absence (NS) of MoA VHCDR3, LPS, an irrelevant control peptide (NC) or a scrambled peptide (SP) (all 10 micrograms/ml). After incubation, cell lysates were subjected to Western blotting. Membranes were incubated with Abs to pAkt and Akt; pAkt was normalized against Akt (FIG. 53)*, P<0.05 (treated vs untreated cells, n=5). […] PM (5×10^6/ml) were stimulated for 18 hr as above described. After incubation, TNF-α level was evaluated in culture supernatants by specific ELISA assays. (FIG. 54)*, P<0.05 (treated vs untreated cells, n=5). In FIGS. 55 and 56 is shown the phospho-IkBα activation and TNF-α gene expression in PM stimulated with MoA VHCDR3. PM (3×10^6/ml) were stimulated for 1 hr in the presence or absence (NS) of wortmannin (4 nM), MoA VHCDR3, LPS or NC (all 10 micrograms/ml). After incubation, cell lysates were subjected to Western blotting. Membranes were incubated with Abs to pIkBα and IkBα; pIkBα was normalized against IkBα. (FIG. 55)*, P<0.05 (treated versus untreated cells, n=5); †, P<0.05 (wortmannin-treated vs wortmannin-untreated cells, n=5). For testing the expression level of TNF-α gene, PM (1×10^6/ml) were cultured for 1, 6 and 18 hr as above described. After incubation, total RNA was isolated and analyzed for mRNA expression with RT-PCR (FIG. 56). Transcript copy numbers were determined by qPCR using cDNA as a template. Copy numbers were normalized against the copy number of the GADPH gene (B). […]

[4] = test system: C. albicans AIDS68 strain; experiment: murine model of vaginal candidiasis, fluconazole-resistant strain; type: in vivo, mice; settings: peptide 25 micrograms intravaginally 1, 24 and 48 hours after challenge
Protocol: (§1) In vivo activity of N10K against vaginal candidiasis caused in mice by the fluconazole-resistant C. albicans AIDS68 strain. The anticandidal therapeutic activity of N10K was evaluated in a murine model of vaginal candidiasis. Groups of 5 mice were injected subcutaneously with 0.02 mg of estradiol benzoate in 100 μl of saline solution, […] and weekly thereafter. Then, mice given intravaginally 10^6 cells of the fluconazole-resistant C. albicans strain AIDS68 in 20 μl of saline solution on day 0 and were sampled for intravaginal CFU. N10K, 25 micrograms, was intravaginally administered in comparison to an irrelevant peptide (SP) as control, 1, 24 and 48 hours after the infectious challenge and sampled for intravaginal CFU at days 1, 2, 5, 7, 14, 21, and 28. The statistical significance was assessed by two-tailed Student's t test. On days 1, 2, 5, 7, 14, and 21, the differences in the CFU vaginal counts between N10K treated, untreated, SP treated and fluconazole treated animals were statistically significant (P<0.05) (Table VI).
as §1, with “T11F” for “N10K”, “T11F,” for “N10K,”, “VIII).” for “VI).”

Compound	pEC50 [1]	EC50asd/EC50N10K [1]	also measured
TCRVDHRGLTF [Peptide T11F, T C R V D H R G L T F]	5.80		pEC50 [2]: 5.57; induction of apoptotic/necrotic effects (U937 cell line): exclude the induction of apoptotic/necrotic effects
CC(C)C[C@H](NC(=O)[C@H](C)NC(=O)[C@H](CCC(=O)O)NC(=O)[C@@H](N)Cc1c[nH]cn1)C(=O)O [Peptide H4L, H E A L] (H-HEAL-OH)			induction of apoptotic/necrotic effects (U937 cell line): exclude the induction of apoptotic/necrotic effects
NQVSLTCAVK [asd L8A N10K, N Q V S L T C A V K]	6.13	0.74	
G Q Y G A L W F A Y (GQYGALWFAY) [Peptide A5]			TNF-α-inducing activity compared with VHCDR3 [3]: either unchanged or slightly reduced
NQVSLACLVK [asd T6A N10K, N Q V S L A C L V K]	5.31	4.86	
NQVSLTCLAK [asd V9A N10K, N Q V S L T C L A K]	5.75	1.77	
NQASLTCLVK [asd V3A N10K, N Q A S L T C L V K]	5.23	5.91	
N Q V S L T C L V A (NQVSLTCLVA) [asd K10A]			percentual inhibition of C. albicans growth ([1]; at the concentration of 250 micrograms/ml): * EC50 was not determined, asd K10A showed a percentual inhibition of C. albicans growth equal to 69.04 at the concentration of 250 micrograms/ml
NQVSATCSVK [L5A, L8S N10K, N Q V S A T C S V K]	4.36		Activity ([1]; Table III, in vitro, Fungus): cidal
OC(Cn1cncn1)(Cn1cncn1)c1ccc(F)cc1F [fluconazole]			CFU vaginal counts ([4]; Day 0): >100; CFU vaginal counts ([4]; Day 1): >100; CFU vaginal counts ([4]; Day 2): 93 ± 4.3; CFU vaginal counts ([4]; Day 5): 61 ± 2.5; CFU vaginal counts ([4]; Day 7): 44 ± 2.9; CFU vaginal counts ([4]; Day 14): 18.7 ± 3.8; CFU vaginal counts ([4]; Day 21): 11.7 ± 0.7; CFU vaginal counts ([4]; Day 28): 0
NQVSATCLVK [asd L5A N10K, N Q V S A T C L V K]	6.05	0.88	
AQVSLTCLVK [asd N1A N10K, A Q V S L T C L V K]	6.23	0.58	
G Q A G N L W F A Y (GQAGNLWFAY) [Peptide A3]			TNF-α-inducing activity compared with VHCDR3 [3]: either unchanged or slightly reduced
NQVSLTALVK [asd C7A N10K, N Q V S L T A L V K]	4.26	54.71	
NQVALTCLVK [asd S4A N10K, N Q V A L T C L V K]	5.62	2.38	
